This note sets out measurements from patent US20250144172A1, “ANTI-FIBROTIC SIALIDASE INHIBITOR COMPOUNDS AND METHODS OF USE” (The Texas A&M University System, priority 2016, published 2025).

A value given as a limit tells only on which side of the number the result lay.

One may read the IC50 as the midpoint of a concentration-inhibition curve. As a reminder, the Ki is the equilibrium dissociation constant of an inhibitor or competing ligand from its target.

The target in the first assay is human NEU1 (Homo sapiens (Human), UniProt Q99519). The assay can be described thus: human NEU1 sialidase inhibition. The settings on record: read-out: NEU1 IC50; human NEU1.
Excerpt: Enzymatic activity may be defined as inhibited if the rate measured by the Michaelis-Menten equation in an in vitro assay using a substrate with a terminal sialic acid is inhibited by at least 50%. More specifically, a human sialidase inhibitor may be a compound that inhibits the rate of at least one human sialidase by at least 50% as measured by the Michaelis-Menten equation in an in vitro assay using the fluorometric substrate 4MU-NANA [2′-(4-Methylumbelliferyl)-α-D-N-acetylneuraminic acid.
In general, sialidase activity, including human sialidase activity, may be assessed at 37° C. in the presence of buffers ranging in pH from 3.7 to 7.4. […] Bovine serum albumin (BSA) is added to the buffer at a concentration of 100 ug/ml. Sialidase at a final concentration of 300 ng/ml is then added to the buffer. A sialidase inhibitor is then added to the mixture at a series of final concentrations. The reaction mixture is incubated for 30 minutes to allow the inhibitor to bind the sialidase. The fluorometric substrate 4MU-NANA [2′-(4-Methylumbelliferyl)-α-D-N-acetylneuraminic acid sodium salt hydrate is then added at a final concentration of 200 μM. […] The total volume of each reaction mixture is 0.1 ml. The cleavage of 4MU-NANA is then monitored by fluorescence every 20 minutes for 5 hours with excitation light at 360 nm and the fluorescence emission at 460 nm.
The fluorescence in the absence of sialidases is subtracted from all readings.
In the case of `CCCC(=O)NC[C@H](O)[C@H](O)[C@@H]1OC(C(=O)O)=C[C@H](O)[C@H]1NC(C)=O` [Compound 6], the IC50 was determined as 32 µM. As for `CC(=O)N[C@H]1C([C@@H](O)[C@@H](O)Cn2cc(-c3ccccc3)nn2)OC(C(=O)O)=C[C@@H]1O` (stereo partly shown) [Compound 51], the IC50 turned out to be 200 ± 30 µM. The same measure, in the same setting: under `CC(=O)N[C@H]1[C@H]([C@@H](O)[C@@H](O)CNC(=O)C2CC2)OC(C(=O)O)=C[C@@H]1O` [Compound 5] stands 680 µM.

The next assay deals with human NEU4 (Homo sapiens (Human), UniProt Q8WWR8). The assay can be described thus: human NEU4 sialidase inhibition.
Sequence of human NEU4 (Q8WWR8 whole entry): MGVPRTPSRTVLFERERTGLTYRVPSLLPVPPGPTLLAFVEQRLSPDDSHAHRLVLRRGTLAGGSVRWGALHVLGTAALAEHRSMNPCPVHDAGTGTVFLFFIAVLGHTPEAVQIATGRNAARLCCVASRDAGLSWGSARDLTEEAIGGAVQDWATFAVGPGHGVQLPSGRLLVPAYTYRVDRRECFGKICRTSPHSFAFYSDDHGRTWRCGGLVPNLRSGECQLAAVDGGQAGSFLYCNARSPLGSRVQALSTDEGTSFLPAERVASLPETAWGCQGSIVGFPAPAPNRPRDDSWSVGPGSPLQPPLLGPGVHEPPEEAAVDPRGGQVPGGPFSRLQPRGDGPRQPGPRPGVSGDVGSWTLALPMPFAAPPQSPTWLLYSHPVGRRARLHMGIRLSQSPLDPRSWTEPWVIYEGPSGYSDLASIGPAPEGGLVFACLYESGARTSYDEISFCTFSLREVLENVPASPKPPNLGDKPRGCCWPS
Settings: not given
The molecule `O=C(Cn1cc(-c2ccccc2)nn1)N[C@@H]1C(O)C=C(C(=O)O)OC1C(O)C(O)CO` (stereo partly shown) [Compound 50] gave an IC50 of 250 ± 40 µM.

In the case of `CCC(CC)O[C@@H]1CC(C(=O)O)C=C(n2cc([C@]3(O)CCC4C5CCc6cc(O)ccc6C5CC[C@@]43C)nn2)[C@H]1NC(C)=O` (stereo partly shown) [Compound 29], inhibition was half-maximal at 800 ± 400 µM (IC50). On to `CC(=O)N[C@@H]1C(O)C=C(C(=O)O)OC1CNNCc1ccc(-c2ccccc2)cc1` (stereo partly shown) [Compound 47], for which the IC50 worked out at 200 ± 20 µM. On the same count and under the same terms, under `CC(=O)N[C@@H]1C(N=[N+]=[N-])C=C(C(=O)O)OC1CN(Cc1ccccc1)OCc1ccccc1` (stereo partly shown) [Compound 42] stands 350 ± 180 µM.

Still in this assay, the particulars now being: read-out: NEU4 IC50; human NEU4.
Consider `CCCCC(=O)NC[C@H](O)[C@H](O)[C@@H]1OC(C(=O)O)=C[C@H](O)[C@H]1NC(C)=O` [Compound 8], for which the IC50 was greater than 1000 µM.

As for `CC(=O)N[C@H]1C([C@@H](O)[C@@H](O)Cn2cc(-c3ccccc3)nn2)OC(C(=O)O)=C[C@@H]1O` (stereo partly shown) [Compound 51], the IC50 came out at 2.3 ± 0.2 µM. Still for that read-out and setting: under `CC(=O)N[C@H]1[C@H]([C@@H](O)[C@@H](O)CNC(=O)C2CC2)OC(C(=O)O)=C[C@@H]1O` [Compound 5] stands 825 µM.

The next assay deals with human NEU3 (Homo sapiens (Human), UniProt Q9UQ49). The assay can be described thus: human NEU3 sialidase inhibition.
Sequence of human NEU3 (Q9UQ49 whole entry): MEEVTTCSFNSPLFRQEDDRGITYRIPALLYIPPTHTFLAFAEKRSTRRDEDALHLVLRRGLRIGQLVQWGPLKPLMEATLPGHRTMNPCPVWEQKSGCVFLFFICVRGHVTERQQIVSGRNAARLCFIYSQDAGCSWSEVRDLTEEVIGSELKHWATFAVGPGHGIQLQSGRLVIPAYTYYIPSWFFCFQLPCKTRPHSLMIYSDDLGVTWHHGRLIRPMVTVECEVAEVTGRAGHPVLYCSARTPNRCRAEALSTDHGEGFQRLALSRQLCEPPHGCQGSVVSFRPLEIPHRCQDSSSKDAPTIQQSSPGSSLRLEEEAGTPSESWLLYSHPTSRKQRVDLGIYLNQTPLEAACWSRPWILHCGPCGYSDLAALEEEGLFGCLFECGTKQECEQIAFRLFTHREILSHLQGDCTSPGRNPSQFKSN
Settings: not given
Molecule `O=C(Cn1ccnn1)N[C@H]1[C@H]([C@H](O)[C@H](O)CO)OC(C(=O)O)=C[C@@H]1O` [Compound 25] gave a Ki of 21 ± 8 µM.

Still in this assay, the particulars now being: NEU3 IC50, human NEU3.
Regarding `CCC(CC)O[C@@H]1CC(C(=O)O)C=C(n2cc([C@]3(O)CCC4C5CCc6cc(O)ccc6C5CC[C@@]43C)nn2)[C@H]1NC(C)=O` (stereo partly shown) [Compound 29], the half-inhibitory concentration (IC50) amounted to 350 ± 100 µM. On the same count and under the same terms, under `CC(=O)N[C@@H]1C(N=[N+]=[N-])C=C(C(=O)O)OC1CNNc1ccccc1` (stereo partly shown) [Compound 43] stands 20 ± 8 µM; under `CC(=O)N[C@@H]1C(N=[N+]=[N-])C=C(C(=O)O)OC1CNOCc1ccccc1` (stereo partly shown) [Compound 41], 24 ± 2 µM. Still for that read-out and setting: for `CC(=O)N[C@@H]1C(O)C=C(C(=O)O)OC1CNNCc1ccc(-c2ccccc2)cc1` (stereo partly shown) [Compound 47] the value was 70 ± 20 µM.

Take `CC(=O)N[C@@H]1C(N)C=C(C(=O)O)OC1CNc1ccccc1` (stereo partly shown) [Compound 44]: the IC50 is 540 ± 30 µM. The same measure, in the same setting: under `CC(=O)N[C@@H]1C(N=[N+]=[N-])C=C(C(=O)O)OC1CN(Cc1ccccc1)OCc1ccccc1` (stereo partly shown) [Compound 42] stands 24 ± 11 µM.

Still in this assay, the particulars now being: read-out: NEU3 IC50; human NEU3.
For `CC(=O)N[C@H]1[C@H]([C@H](O)[C@H](O)Cn2cc(CCCO)nn2)OC(C(=O)O)=C[C@@H]1O` [Compound 23], the IC50 turned out to be 500 ± 200 µM. Same read-out and setting: for `CC(=O)N[C@H]1[C@H]([C@H](O)[C@H](O)Cn2cc(COc3ccccc3)nn2)OC(C(=O)O)=C[C@@H]1O` [Compound 20] the value was 45 ± 3 µM; for `CCCCCCc1cn(C[C@@H](O)[C@@H](O)[C@@H]2OC(C(=O)O)=C[C@H](O)[C@H]2NC(C)=O)nn1` [Compound 17], 23 ± 4 µM.

Regarding `CC(=O)N[C@H]1[C@H]([C@H](O)[C@H](O)Cn2cc(C(C)(C)O)nn2)OC(C(=O)O)=C[C@@H]1O` [Compound 24], the IC50 came out at 300 ± 500 µM.

As for `CC(=O)N[C@H]1[C@H]([C@H](O)[C@H](O)Cn2cc(-c3ccccc3)nn2)OC(C(=O)O)=C[C@@H]1O` [Compound 16], the IC50 was determined as 20 ± 10 µM. On the same count and under the same terms, for `CCOc1cn(C[C@@H](O)[C@@H](O)[C@@H]2OC(C(=O)O)=C[C@H](O)[C@H]2NC(C)=O)nn1` [Compound 18] the value was 300 ± 200 µM. The same measure, in the same setting: under `CCOC(OCC)c1cn(C[C@@H](O)[C@@H](O)[C@@H]2OC(C(=O)O)=C[C@H](O)[C@H]2NC(C)=O)nn1` [Compound 19] stands 130 ± 20 µM. On the same count and under the same terms, under `CC(=O)N[C@H]1[C@H]([C@H](O)[C@H](O)Cn2cc(CCO)nn2)OC(C(=O)O)=C[C@@H]1O` [Compound 22] stands 400 ± 600 µM; under `CC(=O)N[C@H]1[C@H]([C@H](O)[C@H](O)Cn2ccnn2)OC(C(=O)O)=C[C@@H]1O` [Compound 15], 70 ± 20 µM. For `CC(=O)N[C@H]1[C@H]([C@H](O)[C@H](O)Cn2cc(CO)nn2)OC(C(=O)O)=C[C@@H]1O` [Compound 21], the IC50 was 300 ± 400 µM.

As for `CCCC(=O)NC[C@H](O)[C@H](O)[C@@H]1OC(C(=O)O)=C[C@H](O)[C@H]1NC(C)=O` [Compound 6], the IC50 is greater than 1000 µM. Still for that read-out and setting: for `CC(=O)N[C@H]1C([C@@H](O)[C@@H](O)Cn2cc(-c3ccccc3)nn2)OC(C(=O)O)=C[C@@H]1O` (stereo partly shown) [Compound 51] the value was 4.6 ± 0.2 µM; for `CCC(CC)O[C@@H]1CC(C(=O)O)C=C(n2cc(C(C)(C)O)nn2)[C@H]1NC(C)=O` (stereo partly shown) [Compound 30], 640 ± 210 µM; for `CC(=O)N[C@H]1[C@H]([C@@H](O)[C@@H](O)CNC(=O)C2CC2)OC(C(=O)O)=C[C@@H]1O` [Compound 5], greater than 1000 µM.
